Measured values taken from patent US6583309B1 (University of Medicine and Dentistry of New Jersey, priority 1999, dated 2003).

Biological target: TAR RNA
Assay: In vitro binding of resin-bound compounds to TAR RNA (OD260 of unbound RNA)
Design: species or system HIV
Conditions: in vitro assay; compounds of formula I on TentaGel beads incubated with TAR RNA overnight at 4° C. in TK buffer; read-out: Kd (nM), binding constants
Description: Binding of compounds of formula I and V to TAR RNA was measured by evaluating their inhibition of TAR-TAT complex formation in the presence of increasing levels of the compound to be tested. The compounds of formula I were tested in an in vitro assay; the compounds of formula V were tested in an in vivo assay.
The TAR RNA used corresponds to the minimal sequence required for TAT responsiveness in vivo. This 29-residue oligonucleotide has the sequence: 5′-[…]-3′ (SEQ ID NO.: 1). TAR RNA was prepared by in vitro transcription. A “top strand” single-stranded DNA oligomer having the sequence 5′-TAATACGACTCACTATAG-3′ (SEQ ID NO.: 2) was annealed to a “bottom strand” single-stranded DNA template having the following sequence: 3′-[…]-5′ (SEQ ID NO.: 3), thereby generating a double-stranded region corresponding to a promoter sequence recognized by T7 RNA polymerase. Transcription was carried out in transcription buffer (40 mM Tris-HCl, pH 8.1, 1 mM spermidine, 0.01% Triton®X-100, 5 mM dithiothreitol, 4 mM each of ATP, GTP, CTP, and UTP at 37° C. for 4 to 5 hours. Reactions were performed in a volume of 0.02 ml containing 8 pmole of template (top strand annealed to bottom strand) and 40 to 60 units of T7 RNA polymerase. Transcription was terminated by adding an equal volume of loading buffer (9M urea, 1 mmol EDTA, 0.1M bromophenol blue in 1XTBE buffer; TBE is 45 mmol trisborate at pH 8). Product RNA was purified by electrophoresis through a denaturing 20% polyacrylamide gel containing 8M urea. RNA was extracted from the gel, precipitated, dissolved in dithylpyrocarbonate-treated water, and stored at −20° C. until used.
In vitro assay conditions: Compounds AA-DU were synthesized on TentaGel S—NH2 (4.6 mmole). All Fmoc-amino acids were purchased from Bachem (Torrance, Calif.). 1-hydroxybenzotriazole (HOBT) and diisopropylcarbodiimide (DIPCDI) were obtained from Aldrich Chemical Co., Milwalkee, Wis. Piperidine and trifluoroacetic acid were purchased from Applied Biosystems Division, Perkin-Elmer. Compounds AA-DU were synthesized manually according to standard solid-phase peptide synthesis protocols. Coupling efficiencies of residues at each step were monitored by Kaiser test. Deprotection of trimer peptides was carried out in 10% water in trifluoroacetic acid (1 mL) for 16 hours at room temperature. After filtration of solvents, the resin was washed with water (1 mL×4), DMF (1 mL×4), dichloromethane (1 mL×4), and dried under reduced pressure. The compounds attached to the resin (10 beads) were placed in an Eppendorf tube and washed with TK buffer ([…]). The beads were suspended in TK buffer ([…]) and incubated with TAR RNA ([…]) overnight at 4° C. The suspension was centrifuged and the supernatant containing unbound RNA was transferred to a cuvette for OD260 measurements. The UV absorbance was measured by a Shimadzu UV-1601 spectrometer. Equilibrium concentrations of RNA were determined from these measurements. Given that the initial concentrations of ligand and RNA are known, and assuming simple bimolecular receptor/substrate binding, dissociation constant (KD) was calculated from straightforward equations.

Kd | SMILES
147 nM | NCCCC[C@H](COC(N)=O)NC(=O)CN(CCCCN)C(=O)[C@@H](N)CCCCN [Compound AU, Carbamic acid 6-amino-2-{2-[(4-amino-butyl)-(2,6-diamino-hexanoyl)-amino]-acetylamino}-hexyl ester]
325 nM | NCCCC[C@H](COC(N)=O)NC(=O)CN(CCCCN)C(=O)[C@H](N)CCCCN [Compound AV, Carbamic acid 6-amino-2-{2-[(4-amino-butyl)-(2,6-diamino-hexanoyl)-amino]-acetylamino}-hexyl ester]
165 nM | NCCCCCCCNCC(=O)N(CCCCN)CC(=O)N[C@H](CCCCN)COC(N)=O [Compound AX, Carbamic acid 6-amino-2-(2-{(4-amino-butyl)-[2-(7-amino-heptylamino)-acetyl]-amino}-acetylamino)-hexyl ester]
403 nM | NCCCCNCC(=O)N(CCCCN)CC(=O)N[C@H](CCCCN)COC(N)=O [Compound AY, Carbamic acid 6-amino-2-(2-{(4-amino-butyl)-[2-(4-amino-butylamino)-acetyl]-amino}-acetylamino)-hexyl ester]
147 nM | N=C(N)NCCC[C@H](N)COC(=O)N(CCCCN)CC(=O)N[C@H](CCCCN)COC(N)=O [Compound AZ, Carbamic acid 6-amino-2-{2-[(4-amino-butyl)-(2-amino-5-guanidino-pentyloxycarbonyl)-amino]-acetylamino}-hexyl ester]
256 nM | NCCCCCN(CC(=O)N[C@H](CCCCN)COC(N)=O)C(=O)OC[C@@H](N)CCCCN [Compound BB, Carbamic acid 6-amino-2-{2-[(5-amino-pentyl)-(2,6-diamino-hexyloxycarbonyl)-amino]-acetylamino}-hexyl ester]
235 nM | NCCCCCN(CC(=O)N[C@H](CCCCN)COC(N)=O)C(=O)[C@@H](N)CCCCN [Compound BD, Carbamic acid 6-amino-2-{2-[(5-amino-pentyl)-(2,6-diamino-hexanoyl)-amino]-acetylamino}-hexyl ester]
678 nM | NCCCCCN(CC(=O)N[C@H](CCCCN)COC(N)=O)C(=O)[C@H](N)CCCCN [Compound BE, Carbamic acid 6-amino-2-{2-[(5-amino-pentyl)-(2,6-diamino-hexanoyl)-amino]-acetylamino}-hexyl ester]
147 nM | NCCCCCNCC(=O)N(CCCCCN)CC(=O)N[C@H](CCCCN)COC(N)=O [Compound BF, Carbamic acid 6-amino-2-(2-{(5-amino-pentyl)-[2-(5-amino-pentylamino)-acetyl]-amino}-acetylamino)-hexyl ester]
431 nM | NCCCCCCCNCC(=O)N(CCCCCN)CC(=O)N[C@H](CCCCN)COC(N)=O [Compound BG, Carbamic acid 6-amino-2-{2-[[2-(7-amino-heptylamino)-acetyl]-(5-amino-pentyl)-amino]-acetylamino}-hexyl ester]
2530 nM | NCCCCCN(CC(=O)N[C@H](CCCCN)COC(N)=O)C(=O)CNCCCCN [Compound BH, Carbamic acid 6-amino-2-{2-[[2-(4-amino-butylamino)-acetyl]-(5-amino-pentyl)-amino]-acetylamino}-hexyl ester]
202 nM | N=C(N)NCCC[C@H](N)COC(=O)N(CCCCCN)CC(=O)N[C@H](CCCCN)COC(N)=O [Compound BI, Carbamic acid 6-amino-2-{2-[(2-amino-5guanidino-pentyloxycarbonyl)-(5-amino-pentyl)-amino]-acetylamino}-hexyl ester]
930 nM | NCCCCCCCN(CC(=O)N[C@H](CCCCN)COC(N)=O)C(=O)OC[C@@H](N)CCCCN [Compound BK, Carbamic acid 6-amino-2-{2-[(7-amino-heptyl)-(2,6-diamino-hexyloxycarbonyl)-amino]-acetylamino}-hexyl ester]
718 nM | NCCCCCCCN(CC(=O)N[C@H](CCCCN)COC(N)=O)C(=O)OC[C@H](N)CCCCN [Compound BL, Carbamic acid 6-amino-2-{2-[(7-amino-heptyl)-(2,6-diamino-hexyloxycarbonyl)-amino]-acetylamino}-hexyl ester]
403 nM | NCCCCCCCN(CC(=O)N[C@H](CCCCN)COC(N)=O)C(=O)[C@@H](N)CCCCN [Compound BM, Carbamic acid 6-amino-2-{2-[(7-amino-heptyl)-(2,6-diamino-hexanoyl)-amino]-acetylamino}-hexyl ester]
3150 nM | NCCCCCCCN(CC(=O)N[C@H](CCCCN)COC(N)=O)C(=O)[C@H](N)CCCCN [Compound BN, Carbamic acid 6-amino-2-{2-[(7-amino-heptyl)-(2,6-diamino-hexanoyl)-amino]-acetylamino}-hexyl ester]
183 nM | NCCCCCCCN(CC(=O)N[C@H](CCCCN)COC(N)=O)C(=O)CNCCCCCN [Compound BO, Carbamic acid 6-amino-2-(2-{(7-amino-heptyl)-[2-(5-amino-pentylamino)-acetyl]-amino}-acetylamino)-hexyl ester]
2190 nM | NCCCCCCCNCC(=O)N(CCCCCCCN)CC(=O)N[C@H](CCCCN)COC(N)=O [Compound BP, Carbamic acid 6-amino-2-(2-{(7-amino-heptyl)-[2-(7-amino-heptylamino)-acetyl]-amino}-acetylamino)-hexyl ester]
235 nM | NCCCCCCCN(CC(=O)N[C@H](CCCCN)COC(N)=O)C(=O)CNCCCCN [Compound BQ, Carbamic acid 6-amino-2-{2-[[2-(4-amino-butylamino)-acetyl]-(7-amino-heptyl)-amino]-acetylamino}-hexyl ester]
5590 nM | N=C(N)NCCC[C@H](N)COC(=O)N(CCCCCCCN)CC(=O)N[C@H](CCCCN)COC(N)=O [Compound BR, Carbamic acid 6-amino-2-{2-[(2-amino-5-guanidino-pentyloxycarbonyl)-(7-amino-heptyl)-amino]-acetylamino}-hexyl ester]
1420 nM | NCCCC[C@@H](N)COC(=O)N[C@@H](CCCCN)C(=O)N[C@H](CCCCN)COC(N)=O [Compound BU, Carbamic acid 6-amino-2-[6-amino-2-(2,6-diamino-hexyloxycarbonylamino)-hexanoylamino]-hexyl ester]
678 nM | NCCCC[C@H](COC(N)=O)NC(=O)[C@H](CCCCN)NC(=O)[C@H](N)CCCCN [Compound BW, Carbamic acid 6-amino-2-[6-amino-2-(2,6-diamino-hexanoylamino)-hexanoylamino]-hexyl ester]
202 nM | NCCCCCNCC(=O)N[C@@H](CCCCN)C(=O)N[C@H](CCCCN)COC(N)=O [Compound BX, Carbamic acid 6-amino-2-{6-amino-2-[2-(5-amino-pentylamino)-acetylamino]-hexanoylamino}-hexyl ester]
183 nM | NCCCCCCCNCC(=O)N[C@@H](CCCCN)C(=O)N[C@H](CCCCN)COC(N)=O [Compound BY, Carbamic acid 6-amino-2-{6-amino-2-[2-(7-amino-heptylamino)-acetylamino]-hexanoylamino}-hexyl ester]
130 nM | NCCCCNCC(=O)N[C@@H](CCCCN)C(=O)N[C@H](CCCCN)COC(N)=O [Compound BZ, Carbamic acid 6-amino-2-{6-amino-2-[2-(4-amino-butylamino)-acetylamino]-hexanoylamino}-hexyl ester]

SMILES | Kd
NCCCC[C@H](COC(N)=O)NC(=O)CN(CCCCN)C(=O)OC[C@H](N)CCC(N)=O [Compound BA, Carbamic acid 6-amino-2-{2-[(4-amino-butyl)-(2-amino-4-carbamoyl-butoxycarbonyl)-amino]-acetylamino}-hexyl ester] | 460 nM
NCCCCCN(CC(=O)N[C@H](CCCCN)COC(N)=O)C(=O)OC[C@H](N)CCC(N)=O [Compound BJ, Carbamic acid 6-amino-2-{2-[(2-amino-4-carbamoyl-butoxycarbonyl)-(5-amino-pentyl)-amino]-acetylamino}-hexyl ester] | 202 nM
NCCCCCCCN(CC(=O)N[C@H](CCCCN)COC(N)=O)C(=O)OC[C@H](N)CCC(N)=O [Compound BS, Carbamic acid 6-amino-2-{2-[(2-amino-4-carbamoyl-butoxycarbonyl)-(7-amino-heptyl)-amino]-acetylamino}-hexyl ester] | 639 nM
